Patent US20220308043A1, “FLUORESCENT PROBES FOR IDENTIFICATION AND QUANTIFICATION OF HEPATIC TRANSPORTERS IN VITRO AND IN VIVO” (Université d'Orléans, priority 2021, published 2022)
“Also recorded” adds a separate entry of the source. Where two headings read alike, the source gives them in different places. Each block holds one compound with its values, some of them ahead of it.

Legend:
[1] = tested on: bile canaliculi (BC) of HEPARG® cells; test: Bile canaliculi alterations evaluation for cholestasis-DILI prediction in HEPARG® cells; assay type: cell-based, human; details: for alteration of bile canaliculi (BC) revealed by fluorescent probe 15: HEPARG® cells, probe 15, versus control cells incubated only with 15, FIG. 9
Procedure: To investigate the application of fluorescent probes for predicting drug-induced cholestasis, cholestatic effects of six reference cholestatic drugs are evaluated by using two protocols.

BC = details: cited from earlier work
Efflux transporters = details: cited from earlier work
[2] = tested on: primary human hepatocyte (PHH)
Procedure: Four batches of primary human hepatocyte (PHH) are used for in vitro uptake assay:
Cryopreserved PHH are thawed in one-step Hepatocyte Thawing/Plating medium (MIL130) and then cells number and viability were evaluated with trypan blue exclusion test prior to cell treatment.
Influx study. Cryopreserved PHH are thawed in one-step Hepatocyte Thawing/Plating medium (MIL130) and then the cell number and viability are evaluated with trypan blue exclusion test prior to cell treatment. The cells were grown in MW96 at a density of 0.2*10^6/well.
Incubation for uptake evaluation. Incubation buffer: HBSS buffer containing 10 mM Herpes and 0.1% BSA, pH 7.4
The active uptake of each probe was tested according to the Test group 1 conditions. The results are presented in the table below as the percentage of active uptake compared to total uptake.

BCRP = biological target: T1, BCRP (Homo sapiens, UniProt Q9UNQ0); test: Efflux assay approach 1: canalicular accumulation in wild-type HEPARG® hepatocytes with or without KO143 (BCRP inhibitor); assay type: cell-based; details: 3 hours at 37° C., FIG. 4 image C
T1 construct: both uptake transporters and efflux transporters, such as BSEP, MRP2, Pgp and BCRP; host or cells: differentiated wild-type HepaRG hepatocytes
T1 sequence (Q9UNQ0 1-655): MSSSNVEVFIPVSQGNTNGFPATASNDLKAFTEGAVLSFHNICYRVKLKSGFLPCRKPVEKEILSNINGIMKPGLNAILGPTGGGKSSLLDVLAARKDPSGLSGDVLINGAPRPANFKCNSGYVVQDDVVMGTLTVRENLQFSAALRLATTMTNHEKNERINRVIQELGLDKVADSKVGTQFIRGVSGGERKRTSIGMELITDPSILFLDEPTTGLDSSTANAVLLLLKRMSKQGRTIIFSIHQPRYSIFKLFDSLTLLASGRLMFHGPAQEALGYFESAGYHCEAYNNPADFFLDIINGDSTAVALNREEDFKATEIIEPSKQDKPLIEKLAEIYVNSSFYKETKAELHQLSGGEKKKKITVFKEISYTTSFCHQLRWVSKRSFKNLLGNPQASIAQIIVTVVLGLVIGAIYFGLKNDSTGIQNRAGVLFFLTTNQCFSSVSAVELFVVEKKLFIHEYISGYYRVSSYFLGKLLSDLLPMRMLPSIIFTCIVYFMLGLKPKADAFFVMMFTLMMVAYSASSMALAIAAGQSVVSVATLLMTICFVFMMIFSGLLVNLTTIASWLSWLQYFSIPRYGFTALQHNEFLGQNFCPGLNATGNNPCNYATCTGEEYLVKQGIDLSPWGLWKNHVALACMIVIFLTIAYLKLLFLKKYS
Procedure: (§1) After washing with the WME containing 0.1% BSA, the cell cultures are then incubated with WME medium containing 0.1% BSA, with or without the different inhibitors (taurocholate, Verapamil, KO143) at the concentration indicated at the table E2 for 3 hours at 37° C.

Pgp = biological target: T2, Pgp (Homo sapiens, UniProt P08183); test: Efflux assay approach 1: canalicular accumulation in wild-type HEPARG® hepatocytes with or without Verapamil (Pgp inhibitor); assay type: cell-based; details: 3 hours at 37° C., FIG. 4 image D
T2 construct: both uptake transporters and efflux transporters, such as BSEP, MRP2, Pgp and BCRP; host or cells: differentiated wild-type HepaRG hepatocytes
T2 sequence (P08183 whole entry): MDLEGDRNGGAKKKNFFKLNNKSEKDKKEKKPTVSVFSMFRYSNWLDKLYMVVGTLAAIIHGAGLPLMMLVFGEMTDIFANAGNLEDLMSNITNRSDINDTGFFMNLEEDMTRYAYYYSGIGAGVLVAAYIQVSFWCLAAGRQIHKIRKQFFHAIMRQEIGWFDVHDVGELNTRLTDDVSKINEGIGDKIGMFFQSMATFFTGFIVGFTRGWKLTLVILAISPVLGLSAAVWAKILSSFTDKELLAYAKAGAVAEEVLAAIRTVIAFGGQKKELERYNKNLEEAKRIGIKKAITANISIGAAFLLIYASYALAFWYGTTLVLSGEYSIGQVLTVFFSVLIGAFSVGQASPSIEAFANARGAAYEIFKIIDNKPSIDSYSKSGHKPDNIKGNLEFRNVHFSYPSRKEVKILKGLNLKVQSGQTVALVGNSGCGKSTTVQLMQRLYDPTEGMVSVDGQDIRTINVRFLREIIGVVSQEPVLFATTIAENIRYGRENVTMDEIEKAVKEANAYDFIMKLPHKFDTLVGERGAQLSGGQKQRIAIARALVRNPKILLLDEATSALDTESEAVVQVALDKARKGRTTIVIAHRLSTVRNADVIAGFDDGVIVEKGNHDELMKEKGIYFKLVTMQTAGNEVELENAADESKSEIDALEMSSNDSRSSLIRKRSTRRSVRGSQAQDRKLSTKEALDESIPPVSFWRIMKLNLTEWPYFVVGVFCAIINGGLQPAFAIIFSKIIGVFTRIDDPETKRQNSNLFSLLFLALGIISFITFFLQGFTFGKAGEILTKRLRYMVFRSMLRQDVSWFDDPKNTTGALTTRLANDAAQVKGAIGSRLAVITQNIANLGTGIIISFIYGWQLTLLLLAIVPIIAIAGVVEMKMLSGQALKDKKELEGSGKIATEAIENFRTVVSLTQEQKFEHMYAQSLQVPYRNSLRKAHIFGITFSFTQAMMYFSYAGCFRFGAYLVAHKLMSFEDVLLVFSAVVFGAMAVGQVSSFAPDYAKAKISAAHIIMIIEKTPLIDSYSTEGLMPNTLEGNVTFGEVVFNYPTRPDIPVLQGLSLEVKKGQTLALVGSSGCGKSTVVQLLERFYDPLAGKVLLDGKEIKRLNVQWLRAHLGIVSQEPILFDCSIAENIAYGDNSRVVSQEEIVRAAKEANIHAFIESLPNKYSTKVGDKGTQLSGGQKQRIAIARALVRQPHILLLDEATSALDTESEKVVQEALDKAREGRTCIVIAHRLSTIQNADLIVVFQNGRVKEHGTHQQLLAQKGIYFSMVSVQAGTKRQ
Procedure: as §1

BSEP [3] = biological target: T3, BSEP (Homo sapiens, UniProt O95342); test: Efflux assay approach 2: uptake in ABC transporter vesicles (Sf9) in the presence of ATP or AMP; assay type: in vitro ADME; design: purchased Genomembrane GM3010, GM3030 and GM3050 (reagent kits); host or cells: Sf9 cells; details: 10 minutes, FIG. 6
Procedure: Fluorescent probes were incubated with vesicles at 1 and 10 μM during 10 minutes, while the reference substrates were incubated at the test conditions indicated above. • Approach 3: specificity assessment with HEPARG® MRP2 KO
Transporter assay. Reagent kits for Vesicular Transport Assay from Genomembrane (GM3010, GM3030 and GM3050) were used to determine the specificity of ABC transporters versus tested probes.
The vesicles transfected with BSEP transporter were incubated with the 2 probes 54 and 55 in the presence of ATP or AMP in order to determine the interaction specificity between the probe and the transporter.
Target sequence in this assay (O95342 whole entry, species assumed): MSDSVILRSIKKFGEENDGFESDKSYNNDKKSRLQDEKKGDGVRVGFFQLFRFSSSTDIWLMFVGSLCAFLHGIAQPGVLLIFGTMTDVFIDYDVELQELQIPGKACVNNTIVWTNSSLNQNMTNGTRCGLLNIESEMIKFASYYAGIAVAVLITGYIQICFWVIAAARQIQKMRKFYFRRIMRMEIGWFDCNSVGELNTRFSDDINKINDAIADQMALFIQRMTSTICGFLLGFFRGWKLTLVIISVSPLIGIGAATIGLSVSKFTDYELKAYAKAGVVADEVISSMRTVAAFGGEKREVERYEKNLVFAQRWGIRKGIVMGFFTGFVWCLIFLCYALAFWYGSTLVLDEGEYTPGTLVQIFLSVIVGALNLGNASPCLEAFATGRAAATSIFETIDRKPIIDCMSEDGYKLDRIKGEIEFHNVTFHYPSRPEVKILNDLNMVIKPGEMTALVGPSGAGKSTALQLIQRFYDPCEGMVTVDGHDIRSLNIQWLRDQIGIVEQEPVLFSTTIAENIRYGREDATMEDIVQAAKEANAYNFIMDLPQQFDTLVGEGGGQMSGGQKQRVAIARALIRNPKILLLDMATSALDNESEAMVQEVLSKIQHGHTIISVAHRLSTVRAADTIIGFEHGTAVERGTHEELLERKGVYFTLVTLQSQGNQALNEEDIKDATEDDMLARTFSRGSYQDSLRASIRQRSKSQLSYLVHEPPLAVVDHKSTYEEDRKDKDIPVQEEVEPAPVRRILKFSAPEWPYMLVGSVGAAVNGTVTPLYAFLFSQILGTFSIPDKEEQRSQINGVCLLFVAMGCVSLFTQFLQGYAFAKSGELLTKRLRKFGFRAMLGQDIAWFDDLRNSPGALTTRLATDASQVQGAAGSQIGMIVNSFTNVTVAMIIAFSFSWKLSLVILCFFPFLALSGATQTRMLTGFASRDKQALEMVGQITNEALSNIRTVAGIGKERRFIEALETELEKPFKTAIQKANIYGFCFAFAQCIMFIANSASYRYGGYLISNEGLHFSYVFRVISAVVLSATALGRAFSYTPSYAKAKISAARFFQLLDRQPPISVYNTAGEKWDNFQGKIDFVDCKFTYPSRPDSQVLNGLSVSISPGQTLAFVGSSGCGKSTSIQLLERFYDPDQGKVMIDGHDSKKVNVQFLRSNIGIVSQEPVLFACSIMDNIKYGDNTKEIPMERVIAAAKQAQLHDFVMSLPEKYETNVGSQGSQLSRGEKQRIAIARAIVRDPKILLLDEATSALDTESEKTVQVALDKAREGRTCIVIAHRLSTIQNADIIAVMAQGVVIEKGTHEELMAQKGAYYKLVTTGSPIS

MRP2 [4] = biological target: T4, MRP2 (Homo sapiens, UniProt Q92887); test: Efflux assay approach 3: canalicular accumulation in HEPARG® MRP2 KO and wild-type cells; details: for dependence of canalicular efflux on ABC transporter MRP2: conclusion from MRP2 KO accumulation profile; for accumulation / fluorescence intensity in the BC of HEPARG® MRP2 KO cells: probes 1 to 5 μM or 3 μM CDFDA, 37° C., 30 min, FIG. 7
T4 sequence (Q92887 whole entry): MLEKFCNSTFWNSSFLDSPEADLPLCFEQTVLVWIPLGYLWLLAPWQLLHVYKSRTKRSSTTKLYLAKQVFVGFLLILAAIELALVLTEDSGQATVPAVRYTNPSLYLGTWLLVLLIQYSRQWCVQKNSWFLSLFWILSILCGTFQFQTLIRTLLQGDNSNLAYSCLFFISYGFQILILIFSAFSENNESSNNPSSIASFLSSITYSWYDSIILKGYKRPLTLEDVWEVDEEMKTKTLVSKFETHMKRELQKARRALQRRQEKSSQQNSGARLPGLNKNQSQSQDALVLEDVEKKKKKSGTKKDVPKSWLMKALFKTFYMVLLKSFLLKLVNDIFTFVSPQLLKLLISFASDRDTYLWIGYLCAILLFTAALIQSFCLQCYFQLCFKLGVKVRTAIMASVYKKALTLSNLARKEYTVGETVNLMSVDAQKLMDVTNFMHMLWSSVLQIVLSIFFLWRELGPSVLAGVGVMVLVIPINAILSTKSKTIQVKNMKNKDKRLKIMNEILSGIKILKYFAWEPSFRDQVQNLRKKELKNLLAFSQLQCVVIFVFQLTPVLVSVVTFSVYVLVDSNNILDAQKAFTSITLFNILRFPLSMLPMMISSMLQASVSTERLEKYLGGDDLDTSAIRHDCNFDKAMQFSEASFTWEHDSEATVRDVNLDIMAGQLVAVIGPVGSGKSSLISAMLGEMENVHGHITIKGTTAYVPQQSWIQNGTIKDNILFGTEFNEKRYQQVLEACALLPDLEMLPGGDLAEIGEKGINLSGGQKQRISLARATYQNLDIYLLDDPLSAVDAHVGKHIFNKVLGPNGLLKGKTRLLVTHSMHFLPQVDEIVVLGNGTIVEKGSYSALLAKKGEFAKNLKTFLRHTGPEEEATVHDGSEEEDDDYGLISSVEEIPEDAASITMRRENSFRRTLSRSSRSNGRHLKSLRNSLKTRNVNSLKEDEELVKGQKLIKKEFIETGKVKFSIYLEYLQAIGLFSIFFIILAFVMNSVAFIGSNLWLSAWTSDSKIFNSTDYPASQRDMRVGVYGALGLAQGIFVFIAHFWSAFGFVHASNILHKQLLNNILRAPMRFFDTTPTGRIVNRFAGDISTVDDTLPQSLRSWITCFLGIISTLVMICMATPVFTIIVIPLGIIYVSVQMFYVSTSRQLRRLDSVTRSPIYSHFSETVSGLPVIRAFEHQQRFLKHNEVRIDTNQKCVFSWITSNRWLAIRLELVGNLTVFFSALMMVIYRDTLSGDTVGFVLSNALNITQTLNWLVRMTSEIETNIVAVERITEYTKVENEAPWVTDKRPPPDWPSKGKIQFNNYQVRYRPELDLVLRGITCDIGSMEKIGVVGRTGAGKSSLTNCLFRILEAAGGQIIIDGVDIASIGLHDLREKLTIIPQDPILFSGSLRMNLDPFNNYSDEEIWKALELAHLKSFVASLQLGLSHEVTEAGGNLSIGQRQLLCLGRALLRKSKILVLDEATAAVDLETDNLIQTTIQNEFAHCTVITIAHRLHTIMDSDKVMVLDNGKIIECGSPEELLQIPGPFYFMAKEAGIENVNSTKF
Procedure: (§2) Two HEPARG® cell lines are used as hepatic cell models for in vitro bile acid efflux assay.
(§3) Before the probe incubation assay, both differentiated HEPARG® wild-type and HEPARG® MRP2 KO cell cultures are washed once with Williams' Medium E (WME) with 0.1% BSA and then incubated with 1 to 5 μM of fluorescent probes (54, 55, 15) in WME with 0.1% BSA or 3 μM of CDFDA in WME at 37° C. for 30 min.
(§4) After incubation, the cell cultures are washed 4 times with WME medium containing 0.5% DMSO and 2% FBS.
(§5) The cell cultures are then observed with a fluorescence microscope and the cell images are taken and compared.
(§6) Both the differentiated wild-type HEPARG®™ and MPR2-KO HEPARG® cells are thawed in HEPARG® Thawing/Plating/General Purpose medium (MIL600/ADD670) and cultured in HEPARG® Maintenance/Metabolism Medium (MIL600/ADD620) (according to the user guide of Biopredic International). Fourteen to twenty days after cell seeding and maintenance, the fully differentiated and polarized cell cultures of both the wild-type and MRP2-KO HEPARG® cells are ready and used for the characterization of biological effects of fluorescent probes in term of specific Efflux Transporter-Mediated efflux of probes in the bile canaliculi of HEPARG® hepatocytes.

NTCP = biological target: T5, NTCP (Homo sapiens, UniProt Q14973); test: Uptake evaluation, Test group 2: probe uptake in PHH with Myrcludex (NTCP inhibitor); assay type: in vitro ADME; details: PHH pre-incubated 20 minutes with inhibitor, probe 5 μM, 30 minutes at 37° C.
T5 construct: Cryopreserved PHH are thawed in one-step Hepatocyte Thawing/Plating medium; endogenous in cells; host or cells: cryopreserved primary human hepatocytes (PHH)
T5 sequence (Q14973 1-349): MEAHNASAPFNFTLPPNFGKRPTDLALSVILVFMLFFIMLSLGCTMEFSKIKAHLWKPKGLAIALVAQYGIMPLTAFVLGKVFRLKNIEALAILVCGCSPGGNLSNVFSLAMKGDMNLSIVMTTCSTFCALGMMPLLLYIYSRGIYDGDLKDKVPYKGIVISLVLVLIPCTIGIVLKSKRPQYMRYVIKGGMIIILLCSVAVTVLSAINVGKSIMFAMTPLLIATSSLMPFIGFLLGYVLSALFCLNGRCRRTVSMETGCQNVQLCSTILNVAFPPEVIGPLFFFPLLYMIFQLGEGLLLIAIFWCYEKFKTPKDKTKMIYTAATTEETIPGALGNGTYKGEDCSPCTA

OCT = test: Uptake evaluation, Test group 2: probe uptake in PHH with Mpp (OCT inhibitor); assay type: in vitro ADME, human; details: PHH pre-incubated 20 minutes with inhibitor, probe 5 μM, 30 minutes at 37° C.
OATPs = details: PHH pre-incubated 20 minutes with inhibitor, probe 5 μM, 30 minutes at 37° C.
OATs [5] = test: Uptake evaluation, Test group 2: probe uptake in PHH with Indomethacine/Diclofenac (OATs inhibitor); details: PHH pre-incubated 20 minutes with inhibitor, probe 5 μM, 30 minutes at 37° C.
BSEP [6] = biological target: T3, BSEP; test: Efflux assay approach 1: canalicular accumulation in wild-type HEPARG® hepatocytes with or without taurocholate (BSEP competitive inhibitor); assay type: cell-based; design: both uptake transporters and efflux transporters, such as BSEP, MRP2, Pgp and BCRP; host or cells: differentiated wild-type HepaRG hepatocytes; details: for dependence of efflux into BC on BSEP: conclusion in words; for probe fluorescence / accumulation in BC with taurocholate: taurocholate as competitive inhibitor of BSEP, 3 hours at 37° C., FIG. 4 image B, FIG. 5
Procedure: as §1
Target sequence in this assay (O95342 whole entry): as the sequence (O95342 whole entry, species assumed) above

OATs [7] = tested on: OATs
MRP2 [8] = biological target: T4, MRP2
Procedure: as §2, §3, §4, §5, §6

Compound: CC(=O)Nc1ccc(O)cc1 [Acetaminophen]
- Protocol 1 Effects on BC morphology and BA transporters CDFDA ([1]; drug 3 hours at 37° C., then probe CDFDA 3 μM 30 min, FIG. 8A): No effect
- Theoretical effect: Induced effect on BC (BC): None
- Theoretical effect: Efflux transporters interaction (Efflux transporters): None

- type of probe uptake (active transport or passive diffusion) [2]: mainly mediated by transporters
- BC accumulation with inhibitor of BCRP (KO143) versus control cells (BCRP): independent
- BC accumulation with inhibitor of Pgp (Verapamil) versus control cells (Pgp): independent
- dependence of canalicular efflux on ABC transporter MRP2 (MRP2 [4]): independent
- accumulation / fluorescence intensity in the BC of HEPARG® MRP2 KO cells (MRP2 [4]): stronger fluorescence intensity
Compound: COC(=O)CNC(=O)C(CCCCNC(=O)CCc1ccc2n1[B-](F)(F)[N+]1=C(C)C=C(C)C1=C2)NC(=O)CCC(C)C1CCC2C3C(O)CC4CC(O)CCC4(C)C3CCC12C [Compound 55, Methyl-N6-(3-(5,5-difluoro-7,9-dimethyl-5H-dipyrrolo[1,2-c:2′,1′-f][1,3,2]diazaborinin-3-yl)propanoyl)-N2-((4R)-4-((3R,7S,10S,13R,17R)-3,7-dihydroxy-10,13-dimethylhexadecahydro-1H-cyclopenta[a]phenanthren-17-yl)pentanoyl)-L-lysylglycinate]
- uptake inside the membrane vesicles in the presence of ATP compared to AMP (BSEP [3]; probe at 10 μM): significant uptake

Compound: Cc1c(C)c2c(c(C)c1O)CCC(C)(COc1ccc(CC3SC(=O)NC3=O)cc1)O2 (centres unmarked) [Troglitazone]
- Theoretical effect: Induced effect on BC (BC): constriction

- % of inhibition Myrcludex (NTCP inhibitor) (NTCP): 81%
Compound: Tauro-nor-THCA-24-DBD [reference compound]
- % of inhibition Mpp (OCT inhibitor) (OCT): 26%
- % of inhibition Rifampicine (OATPs inhibitor) (OATPs): 24%
- % of inhibition Indomethacine/Diclofenac (OATs inhibitor) (OATs [5]): 50%

Compound: O=S(=O)(c1cccc2cnccc12)N1CCCNCC1 [Fasudil]
- Theoretical effect: Efflux transporters interaction (Efflux transporters): No

Compound: CN(C)CCCN1c2ccccc2Sc2ccc(Cl)cc21 [Chlorpromazine]
- alteration of bile canaliculi (BC) revealed by fluorescent probe 15 ([1]; listed as CPZ): remarkable constriction of BC; also recorded: detectable constriction of BC
- Theoretical effect: Induced effect on BC (BC): constriction
- Theoretical effect: Efflux transporters interaction (Efflux transporters): MRP2/BSEP

- type of probe uptake (active transport or passive diffusion) [2]: mainly mediated by transporters
- BC accumulation with inhibitor of BCRP (KO143) versus control cells (BCRP): no visible difference
- BC accumulation with inhibitor of Pgp (Verapamil) versus control cells (Pgp): no visible difference
- dependence of canalicular efflux on ABC transporter MRP2 (MRP2 [4]): independent
- accumulation / fluorescence intensity in the BC of HEPARG® MRP2 KO cells (MRP2 [4]): stronger fluorescence intensity
Compound: COC(=O)C(CCCCNC(=O)CCc1ccc2n1[B-](F)(F)[N+]1=C(C)C=C(C)C1=C2)NC(=O)CCC(C)C1CCC2C3C(O)CC4CC(O)CCC4(C)C3CCC12C [Compound 54, Methyl N6-(3-(5,5-difluoro-7,9-dimethyl-5H-dipyrrolo[1,2-c:2′,1′-f][1,3,2]diazaborinin-3-yl)propanoyl)-N2-((4R)-4-((3R,7S,10S,13R,17R)-3,7-dihydroxy-10,13-dimethylhexadecahydro-1H-cyclopenta[a]phenanthren-17-yl)pentanoyl)-L-lysinate]
- uptake in vesicles ATP/AMP (BSEP [3]; whatever probe concentrations (1 and 10 μM)): no difference
- dependence of efflux into BC on BSEP (BSEP [6]): substrate of BSEP
- probe fluorescence / accumulation in BC with taurocholate (BSEP [6]): significant decrease
- accumulation of probe fluorescence in BC of HEPARG® hepatocytes (BSEP [6]; without any inhibitor, FIG. 4 image A): significant accumulation

Compound: COc1ccccc1Oc1c(NS(=O)(=O)c2ccc(C(C)(C)C)cc2)nc(-c2ncccn2)nc1OCCO [Bosentan]
- alteration of bile canaliculi (BC) revealed by fluorescent probe 15 [1]: important dilation
- Theoretical effect: Induced effect on BC (BC): dilation
- Theoretical effect: Efflux transporters interaction (Efflux transporters): MRP2/BSEP

Compound: COC(=O)[C@H](CCCCNc1ccc([N+](=O)[O-])c2nonc12)NC(=O)CC[C@@H](C)C1CCC2C3C(CC[C@@]21C)[C@@]1(C)CC[C@@H](O)CC1C[C@@H]3O (stereo partly drawn) [Compound 15, Methyl-N2-((4R)-4-((3R,7S,10S,13R)-3,7-dihydroxy-10,13-dimethylhexadecahydro-1H-cyclopenta[a]phenanthren-17-yl)pentanoyl)-N6-(7-nitrobenzo[c][1,2,5]oxadiazol-4-yl)-L-lysinate]
- % Active uptake (Mean value) ([2]; human, 30 min, 5 μM, pH 7.4): 31%
- % of inhibition Myrcludex (NTCP inhibitor) (NTCP): 16%
- % of inhibition Mpp (OCT inhibitor) (OCT): 11%
- % of inhibition Rifampicine (OATPs inhibitor) (OATPs): 34%
- involvement of OATs in the uptake of the probe (OATs [7]): mainly dependent on OAT family
- dependence of canalicular efflux on ABC transporter MRP2 (MRP2 [8]): independent
- dependence of efflux into BC on BSEP (BSEP [6]): weakly dependent on BSEP
- probe fluorescence / accumulation in BC with taurocholate (BSEP [6]): partial inhibition profile
